Experimental data from patent EP2567959B1, “6-(4-HYDROXY-PHENYL)-3-STYRYL-1H-PYRAZOLO[3,4-B]PYRIDINE-4-CARBOXYLIC ACID AMIDE DERIVATIVES AS KINASE INHIBITORS” (SANOFI, priority 2011, dated 2013).

target: T1, human full-length recombinant PKC βII (Homo sapiens, UniProt P05771); test: Determination of PKC βII inhibition (Caliper mobility-shift kinase assay, phosphorylation of fluorescein peptide substrate); assay type: biochemical; settings: final compound concentration 1.14 µM (±0.15 µM); 60 min incubation at 32 °C
T1 construct: Active human full-length recombinant PKC βII; purchased Invitrogen GmbH, Darmstadt, Germany
T1 sequence (P05771 1-673 isoform P05771-2): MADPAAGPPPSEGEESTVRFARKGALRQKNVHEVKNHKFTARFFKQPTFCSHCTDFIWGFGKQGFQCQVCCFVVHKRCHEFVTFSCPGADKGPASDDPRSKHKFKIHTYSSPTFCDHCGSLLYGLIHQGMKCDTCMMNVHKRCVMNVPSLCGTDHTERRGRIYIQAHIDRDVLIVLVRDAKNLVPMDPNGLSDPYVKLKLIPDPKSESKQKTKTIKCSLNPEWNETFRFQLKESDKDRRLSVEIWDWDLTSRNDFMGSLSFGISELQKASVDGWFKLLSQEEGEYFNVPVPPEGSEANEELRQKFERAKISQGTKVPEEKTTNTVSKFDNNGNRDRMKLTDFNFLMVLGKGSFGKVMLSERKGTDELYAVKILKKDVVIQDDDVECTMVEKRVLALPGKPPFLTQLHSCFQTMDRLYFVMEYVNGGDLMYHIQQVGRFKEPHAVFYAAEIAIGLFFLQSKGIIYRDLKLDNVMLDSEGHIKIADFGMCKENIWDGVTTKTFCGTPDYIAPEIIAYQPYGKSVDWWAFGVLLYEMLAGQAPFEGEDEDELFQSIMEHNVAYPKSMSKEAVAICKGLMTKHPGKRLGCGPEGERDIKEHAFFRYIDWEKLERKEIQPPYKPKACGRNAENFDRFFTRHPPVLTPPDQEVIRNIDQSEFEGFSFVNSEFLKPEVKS
Method: Determination of PKC βII inhibition
PKC βII inhibition was determined according to the following protocol:
Active human full-length recombinant PKC βII and the peptide substrate, Fluorescein-RFARKGSLRQKNV, were purchased from Invitrogen GmbH, Darmstadt, Germany. Adenosine-5'-triphosphate (ATP), bovine serum albumine (BSA), dimethylsulphoxide (DMSO), 4-(2-hydroxyethyl)piperazine-1-ethanesulfonic acid (Hepes), Triton X-100, 1,2-Dioleoyl-sn-glycerol (DAG), L-α-Phosphatidyl-L-serine (PS), calcium chloride (CaCl2), and Pluronic F-68 were purchased from Sigma-Aldrich, Munich, Germany. Magnesium chloride, 1 M sodium hydroxide solution, 1M hydrochloric acid solution and EDTA were obtained from Merck Biosciences, Darmstadt, Germany.
Test compounds were diluted to three times the test concentration in buffer 1 (30 mM Hepes-NaOH, pH 7.4, 0.01 % Pluronic F-68 and 3 % (v/v) DMSO). The PKC βII enzyme was diluted to a concentration of 30 ng/ml in buffer 2 (30 mM Hepes-NaOH, pH 7.4, 15 mM MgCl2,150 µM CaCl2, 150 µg/ml PS, 60 µg/ml DAG, and 0.045 % (w/v) Triton X-100). The peptide substrate and ATP were diluted to concentrations of 3 µM and 120 µM, respectively, in buffer 2. Two µl of the compound solution were mixed with 2 µl of the diluted enzyme in a 384-well small volume microtiter plate (Greiner, Bio-One, Frickenhausen, Germany), and the kinase reaction was initiated by addition of 2 µl of the solution containing peptide substrate and ATP. After 60 min incubation at 32 °C, the reaction was stopped by addition of 20 µl of a solution containing 130 mM Hepes-NaOH, pH 7.4, 0.0195 % (v/v) Brij-35, 6.5 mM EDTA, 0.13 % chip coating reagent 3 (Caliper Lifescience Inc, Hopkinton, MA) and 6.5 % (v/v) DMSO. Phosphorylation of the substrate peptide was then detected on a Caliper 3000 instrument essentially as described by Pommereau et al (J. Biomol. Screening 2004, 9(5), 409-416). Separation conditions were as follows: Pressure -0.8 psi, upstream voltage - 3000 V, downstream voltage -800 V. Positive controls (buffer 1 instead of compound) and negative controls (buffer 1 instead of compound and buffer 2 instead of kinase solution) were run in parallel on each plate. Fractional turnover (R) was determined as the height of the peak of the phosphorylated peptide product divided by the sum of the unphosphorylated substrate and phosphorylated product peak heights. Percent-inhibition values for the test compounds were determined using the formula % Inhibition = 100*(1-(Rcompound-Rnegative control)/(Rpositive control-Rnegative control). [formula]
In the following table % inhibition values observed with example compounds at a final concentration of 1.14 µM (±0.15 µM) are listed: […]

Row | Structure (SMILES) | inhibition at 1.14 µM [%]
1 | Cc1ccc(C)c(/C=C/c2n[nH]c3nc(-c4ccc(O)cc4)cc(C(=O)N4CCNCC4)c23)c1 [Example 50, [3-[(E)-2-(2,5-Dimethylphenyl)-vinyl]-6-(4-hydroxy-phenyl)-1H-pyrazolo[3,4-b]pyridin-4-yl]-piperazin-1-yl-methanone] | 92
2 | CC(C)C[C@H]1CN(C(=O)c2cc(-c3ccc(O)cc3)nc3[nH]nc(/C=C/c4ccccc4)c23)CCN1 [Example 5, [6-(4-Hydroxy-phenyl)-3-((E)-styryl)-1H-pyrazolo[3,4-b]pyridin-4-yl]-((S)-3-isobutyl-piperazin-1-yl)-methanone] | 85
3 | O=C(c1cc(-c2ccc(O)cc2)nc2[nH]nc(CCc3ccccc3)c12)N1CCNCC1 [Example 17, [6-(4-Hydroxy-phenyl)-3-phenethyl-1H-pyrazolo[3,4-b]pyridin-4-yl]-piperazin-1-yl-methanone] | 94
4 | CN(C)C(=O)c1cccc(/C=C/c2n[nH]c3nc(-c4ccc(O)cc4)cc(C(=O)N4CCNCC4(C)C)c23)c1 [Example 34, 3-{(E)-2-[4-(2,2-Dimethyl-piperazine-1-carbonyl)-6-(4-hydroxy-phenyl)-1H-pyrazolo[3,4-b]pyridin-3-yl]-vinyl}-N,N-dimethyl-benzamide] | 98
5 | COc1cc(/C=C/c2n[nH]c3nc(-c4ccc(O)cc4)cc(C(=O)N4CCNCC4)c23)cc(OC)c1OC [Example 62, {6-(4-hydroxy-phenyl)-3-[(E)-2-(3,4,5-trimethoxy-phenyl)-vinyl]-1H-pyrazolo[3,4-b]pyridin-4-yl}-piperazin-1-yl-methanone] | 98
6 | O=C(c1cc(-c2ccc(O)cc2)nc2[nH]nc(/C=C/c3ccccc3F)c12)N1CCNCC1 [Example 72, [3-[(E)-2-(2-Fluoro-phenyl)-vinyl]-6-(4-hydroxy-phenyl)-1H-pyrazolo[3,4-b]pyridin-4-yl]-piperazin-1-yl-methanone] | 99
7 | Cc1ccc(/C=C/c2n[nH]c3nc(-c4ccc(O)cc4)cc(C(=O)N4CCNCC4)c23)c(F)c1 [Example 63, [3-[(E)-2-(2-Fluoro-4-methyl-phenyl)-vinyl]-6-(4-hydroxy-phenyl)-1H-pyrazolo[3,4-b]pyridin-4-yl]-piperazin-1-yl-methanone] | 97
8 | CC(C)(O)C(=O)N1CCN(C(=O)c2cc(-c3ccc(O)cc3)nc3[nH]nc(/C=C/c4ccccc4)c23)CC1 [Example 86, 2-Hydroxy-1-{4-[6-(4-hydroxy-phenyl)-3-((E)-styryl)-1H-pyra-zolo[3,4-b]pyri-dine-4-carbonyl]-piperazin-1-yl}-2-methyl-propan-1-one] | 93
9 | Cc1cc(O)ccc1-c1cc(C(=O)N2CCNCC2)c2c(/C=C/c3ccccc3)n[nH]c2n1 [Example 7, [6-(4-Hydroxy-2-methyl-phenyl)-3-((E)-styryl)-1H-pyrazolo[3,4-b]pyridin-4-yl]-piperazin-1-yl-methanone] | 96
10 | O=C(CN1CCOCC1)N1CCN(C(=O)c2cc(-c3ccc(O)cc3)nc3[nH]nc(/C=C/c4ccccc4)c23)CC1 [Example 81, 1-{4-[6-(4-Hydroxy-phenyl)-3-((E)-styryl)-1H-pyrazolo[3,4-b]-pyridine-4-car-bonyl]-piperazin-1-yl}-2-mor-pholin-4-yl-ethanone] | 45
11 | O=C(c1cc(-c2ccc(O)cc2)nc2[nH]nc(/C=C/c3cccc4c3NCC4)c12)N1CCNCC1 [Example 33, [3-[(E)-2-(2,3-Dihydro-1H-indol-7-yl)-vinyl]-6-(4-hydroxyphenyl)-1H-pyrazolo[3,4-b]-pyridin-4-yl]-piperazin-1-yl-methanone] | 99
12 | O=C(c1cc(-c2ccc(O)cc2)nc2[nH]nc(/C=C/c3ccccc3)c12)N1CCNC[C@@H]1CO [Example 16, ((R)-2-Hydroxymethyl-piperazin-1-yl)-[6-(4-hydroxy-phenyl)-3-((E)-styryl)-1H-pyrazolo[3,4-b]pyridin-4-yl]-methanone] | 96
13 | O=C(c1cc(-c2ccc(O)cc2)nc2[nH]nc(/C=C/c3cccc(N4CCCCC4)c3)c12)N1CCNCC1 [Example 26, {6-(4-Hydroxy-phenyl)-3-[(E)-2-(3-piperidin-1-yl-phenyl)-vinyl]-1H-pyrazolo[3,4-b]pyridin-4-yl}-piperazin-1-yl-methanone] | 96
14 | O=C(c1cc(-c2ccc(O)cc2)nc2[nH]nc(/C=C/c3ccc(Cl)cc3Cl)c12)N1CCNCC1 [Example 39, [3-[(E)-2-(2,4-Dichloro-phenyl)-vinyl]-6-(4-hydroxy-phenyl)-1H-pyrazolo[3,4-b]pyridin-4-yl]-piperazin-1-yl-methanone] | 39
15 | O=C(c1cc(-c2ccc(O)cc2)nc2[nH]nc(/C=C/c3ccccc3)c12)N1CCC2(CCNC2)C1 (stereo not shown) [Example 78, (2,7-Diaza-spiro-[4.4]non-2-yl)-[6-(4-hydroxy-phenyl)-3-((E)-styryl)-1H-pyra-zolo[3,4-b]py-ridin-4-yl]-methanone] | 94
16 | CC1(NC(=O)c2cc(-c3ccc(O)cc3)nc3[nH]nc(/C=C/c4ccccc4)c23)CCNCC1 [Example 75, 6-(4-Hydroxy-phenyl)-3-((E)-styryl)-1H-pyra-zolo[3,4-b]-pyridine-4-car-boxylic acid (4-methyl-piperidin-4-yl)-amide] | 93
17 | COC(=O)N1CCN(C(=O)c2cc(-c3ccc(O)cc3)nc3[nH]nc(/C=C/c4ccccc4)c23)CC1 [Example 82, 4-[6-(4-Hydroxy-phenyl)-3-((E)-styryl)-1H-pyra-zolo[3,4-b]pyri-dine-4-carbonyl]-piperazine-1-carboxylic acid methyl ester] | 56

The next lines start with the values.

Row | inhibition at 1.14 µM [%] | Structure (SMILES)
18 | 96 | O=C(c1cc(-c2ccc(O)cc2)nc2[nH]nc(/C=C/c3cccc(F)c3)c12)N1CCNCC1 [Example 71, [3-[(E)-2-(3-Fluoro-phenyl)-vinyl]-6-(4-hydroxy-phenyl)-1H-pyrazolo[3,4-b]pyridin-4-yl]-piperazin-1-yl-methanone]
19 | 66 | O=C(c1cc(-c2ccc(O)cc2)nc2[nH]nc(/C=C/c3ccc(C(F)(F)F)cc3)c12)N1CCNCC1 [Example 42, {6-(4-Hydroxy-phenyl)-3-[(E)-2-(4-trifluoromethylphenyl)-vinyl]-1 H-pyrazolo[3,4-b]pyridin-4-yl}-piperazin-1-yl-methanone]
20 | 98 | COc1ccc(/C=C/c2n[nH]c3nc(-c4ccc(O)cc4)cc(C(=O)N4CCNCC4)c23)cc1C [Example 73, {6-(4-Hydroxy-phenyl)-3-[(E)-2-(4-methoxy-3-methyl-phenyl)-vinyl]-1H-pyrazolo[3,4-b]pyridin-4-yl}-piperazin-1-yl-methanone]
21 | 99 | CS(=O)(=O)c1ccc(/C=C/c2n[nH]c3nc(-c4ccc(O)cc4)cc(C(=O)N4CCNCC4)c23)cc1 [Example 24, {6-(4-hydroxy-phenyl)-3-[(E)-2-(4-methanesulfonyl-phenyl)-vinyl]-1H-pyra-zolo[3,4-b]pyri-din-4-yl}-pipe-razin-1-yl-methanone]
22 | 97 | O=C(c1cc(-c2ccc(O)cc2)nc2[nH]nc(/C=C/c3ccc(F)cc3)c12)N1CCNCC1 [Example 37, [3-[(E)-2-(4-Fluoro-phenyl)-vinyl]-6-(4-hydroxy-phenyl)-1H-pyrazolo[3,4-b]pyridin-4-yl]-piperazin-1-yl-methanone]
23 | 98 | CC(=O)c1ccc(/C=C/c2n[nH]c3nc(-c4ccc(O)cc4)cc(C(=O)N4CCNCC4)c23)cc1 [Example 57, 1-(4-{(E)-2-[6-(4-Hydroxy-phenyl)-4-(piperazine-1-carbonyl)-1H-pyrazolo[3,4-b]pyridin-3-yl]-vinyl}-phenyl)-ethanone]
24 | 86 | O=C(c1cc(-c2ccc(O)cc2)nc2[nH]nc(/C=C/c3ccc(Cl)cc3)c12)N1CCNCC1 [Example 1, [3-[(E)-2-(4-Chloro-phenyl)-vinyl]-6-(4-hydroxy-phenyl)-1 H-pyrazolo[3,4-b]pyridin-4-yl]-piperazin-1-yl-methanone]
25 | 89 | O=C(c1cc(-c2ccc(O)cc2)nc2[nH]nc(/C=C/c3ccc(OC(F)(F)F)cc3)c12)N1CCNCC1 [Example 58, {6-(4-Hydroxyphenyl)-3-[(E)-2-(4-trifluorome-thoxy-phenyl)-vinyl]-1H-pyrazo-lo[3,4-b]pyridin-4-yl}-piperazin-1-yl-methanone]
